Measured values from ChEMBL document CHEMBL5120926, “Isolation and Synthesis of Azuriaplysins A and B, Bromoditerpenes with an α-Methylene Carbonyl from the Sea Hare Aplysia kurodai” (J Nat Prod, 2022).

tested on: HeLa S3; test: Cytotoxicity against human HeLa S3 cells assessed as inhibition of cell growth incubated for 72 hrs by MTT assay; assay type: functional, cell-based; conditions: Homo sapiens, HeLa S3, 72 h

Structure (SMILES) | IC50 [µM]
C=C(CC[C@@H]1[C@@]2(C)CC[C@H](Br)C(C)(C)[C@@H]2CC[C@@]1(C)O)C(=O)CO (stereo in doubt; form 1) | 8.1

same assay, conditions: hela s3

Structure (SMILES) | IC50 [µM]
C=C(C=O)CC[C@@H]1[C@@]2(C)CC[C@H](Br)C(C)(C)[C@@H]2CC[C@@]1(C)O (stereo in doubt; form 1) | 40
C=C(C=O)CC[C@@H]1[C@@]2(C)CC[C@H](Br)C(C)(C)[C@@H]2CC[C@@]1(C)O (stereo in doubt; form 2) | 24
C=C(CC[C@@H]1[C@@]2(C)CC[C@H](Br)C(C)(C)[C@@H]2CC[C@@]1(C)O)C(=O)CO (stereo in doubt; form 2) | 5.2
C=C(C=O)CC[C@@H]1[C@@]2(C)CC[C@H](Br)C(C)(C)[C@@H]2CC[C@@]1(C)O (stereo in doubt; form 3) | 14
C=C(CC[C@@H]1[C@@]2(C)CC[C@H](Br)C(C)(C)[C@@H]2CC[C@@]1(C)O)C(=O)CO (stereo in doubt; form 3) | 4.1
